Earlier results in patent US20210176995A1, “Disinfection Composition Comprising Tartaric Acid and Lactic Acid” (Wiping Systems ApS, priority 2016, published 2021).

tested on: Aspergillus b., Bacillus S., Cereus and Clostridium spores; settings: surfaces

| Compound | killing of Aspergillus b., Bacillus S., Cereus and Clostridium spores |
| --- | --- |
| CCCCCCCCCC[N+](C)(C)CCCCCCCCCC.[Cl-] [DDAC] | can't be killed |
| CCO [alcohol, ethanol] | can't be killed |
| PHMB | can't be killed |
